The values that follow come from patent US20230321086A1, “METHODS AND MATERIALS FOR INHIBITING NICOTINAMIDE PHOSPHORIBOSYLTRANSFERASE ACTIVITY” (Universiy of Pittsburgh - Of the Commonwealth System of …, priority 2020, published 2023).

The assay concerns A431 cells. Briefly: Assay for total NADH and NAD+ measurements in cells. It counts as cell-based. Also noted: C: change in NAD levels in response to test compound, shown as % of NAD activity in the absence of test compound: concentration or dose not given beside the values. The following applies: percent of NAD level of untreated control cells (100 = no change). As to the method:
2,000 cells/well and, at the same time, test compounds dissolved in media at the desired concentration were added to each well. The treated cells were incubated overnight in C02 incubator. The cells were washed 6 times with PBS with 1 mM CaCl2) and 1 mM MgCl2. In the last wash, 10 μL of PBS with 1 mM CaCl2) and 1 mM MgCl2 per well were left in each well. Immediately thereafter, 10 μL 0.4% dodecyltrimethylammonium bromide (DTAB) in phosphate buffer pH 8.0 as added, and the plates were shaked at 1000 rpm for 5 minutes. 60 μL reaction mix was added, and fluorescence at Ex/Em 530/585 was immediately monitored. A linear increase should be achieved with 8 cycles every 92 seconds, 10 number of flashes/well/cycle. The reaction mix was prepared per the following table, respecting the amount and order in which each component was added:
All assays were performed in A431 cells. Referring to the tables below, activity: “+” ≥25 μM, “++” ≥1 μM and <25 μM, and “+++”<1 μM.
In each table header, A: NAMPT enzyme inhibitory activity, IC50 (μM); B: Cellular NAD inhibitory activity, IC50 (μM); and C: change in NAD levels in response to test compound, shown as % of NAD activity in the absence of test compound. […] A percentage of 100 percent would indicate no increase or decrease in NAD levels as compared to that measured for untreated control cells, while a percentage of 50 percent would indicate a decrease in NAD levels of 50 percent as compared to that measured for untreated control cells.
As to `CN1CCN(CCCNS(=O)(=O)c2ccc3nc(-c4ccc(F)cc4)c(-c4ccc(F)cc4)nc3c2)CC1` [BC19561], the “C: change in NAD levels in response to test compound, shown as % of NAD activity in the absence of test compound” value was determined as 24%.

As for `C/N=C(\c1ccc2nc(-c3ccc(F)cc3)c(-c3ccc(F)cc3)nc2c1)N1CCN(C)CC1` [BC19668], the “C: change in NAD levels in response to test compound, shown as % of NAD activity in the absence of test compound” value amounted to 31%. `Fc1ccc(-c2nc3cccnc3nc2-c2ccc(F)cc2)cc1` [BC19403]: the “C: change in NAD levels in response to test compound, shown as % of NAD activity in the absence of test compound” value worked out at 68%. For the compound `O=C(Nc1ccc2nc(-c3ccc(F)cc3)c(-c3ccc(F)cc3)nc2c1)OCC(F)(F)F` [BC19239], the “C: change in NAD levels in response to test compound, shown as % of NAD activity in the absence of test compound” value worked out at 66%.

For `CS(=O)(=O)c1cncc(-c2ccc3nc(-c4ccc(F)cc4)c(-c4ccc(F)cc4)nc3c2)c1` [BC19243], the “C: change in NAD levels in response to test compound, shown as % of NAD activity in the absence of test compound” value turned out to be 64%. To `O=C(c1ccc2nc(-c3ccc(F)cc3)c(-c3ccc(F)cc3)nc2c1)N1CCN(CCOCCO)CC1` [BC19514] belongs 73%; to `N#Cc1ccc2nc(-c3ccc(F)cc3)c(-c3ccc(F)cc3)nc2n1` [BC19512], 85%; to `Cn1ncc2c(-c3ccc4nc(-c5ccc(F)cc5)c(-c5ccc(F)cc5)nc4c3)cccc21` [BC19305], 93%. Take `O=C(NCCN1CCOCC1)c1ccc2nc(-c3ccc(Cl)cc3)c(-c3ccc(Cl)cc3)nc2c1` [BC19497]: the “C: change in NAD levels in response to test compound, shown as % of NAD activity in the absence of test compound” value stood at 49%. Turning to `CN1CCN(C(=O)C2CCc3nc(-c4ccc(F)cc4)c(-c4ccc(F)cc4)nc3C2)CC1` (stereo not shown) [BC19663], the “C: change in NAD levels in response to test compound, shown as % of NAD activity in the absence of test compound” value came out at 18%. Turning to `CN1CCN(C(=O)c2ccc3nc(C(F)(F)F)c(-c4ccc(F)cc4)nc3c2)CC1` [BC19103], the “C: change in NAD levels in response to test compound, shown as % of NAD activity in the absence of test compound” value is reported as 92%.

On to `CN(C)CCCNS(=O)(=O)c1ccc2nc(-c3ccc(F)cc3)c(-c3ccc(F)cc3)nc2c1` [BC19562], for which the “C: change in NAD levels in response to test compound, shown as % of NAD activity in the absence of test compound” value is 1%.

Turning to `CC(=O)N1CCC(C(=O)Nc2ccc3nc(-c4ccc(F)cc4)c(-c4ccc(F)cc4)nc3c2)CC1` [BC19310], the “C: change in NAD levels in response to test compound, shown as % of NAD activity in the absence of test compound” value is 52%. With `O=C(c1ccc2nc(-c3ccc(F)cc3)c(-c3ccc(F)cc3)nc2c1)N1CCN(CCO)CC1` [BC19513] the figure was 49%.

Regarding `COCCCNC(=O)Nc1ccc2nc(-c3ccc(F)cc3)c(-c3ccc(F)cc3)nc2c1` [BC19574], the “C: change in NAD levels in response to test compound, shown as % of NAD activity in the absence of test compound” value amounted to 61%.

On to `COCCCNS(=O)(=O)c1ccc2nc(-c3ccc(F)cc3)c(-c3ccc(F)cc3)nc2c1` [BC19554], for which the “C: change in NAD levels in response to test compound, shown as % of NAD activity in the absence of test compound” value worked out at 52%.

`Cc1ccncc1-c1ccc2nc(-c3ccc(F)cc3)c(-c3ccc(F)cc3)nc2c1` [BC19304]: the “C: change in NAD levels in response to test compound, shown as % of NAD activity in the absence of test compound” value came out at 69%.

For the compound `C#CCNC(=O)c1ccc2nc(-c3ccc(F)cc3)c(-c3ccc(F)cc3)nc2c1` [BC19154], the “C: change in NAD levels in response to test compound, shown as % of NAD activity in the absence of test compound” value came out at 73%. To `O=C(Nc1ccc2nc(-c3ccc(F)cc3)c(-c3ccc(F)cc3)nc2c1)C1CCNCC1` [BC19251] belongs 0%.

Regarding `O=S(=O)(NC1CC1)c1ccc2nc(-c3ccc(F)cc3)c(-c3ccc(F)cc3)nc2c1` [BC19505], the “C: change in NAD levels in response to test compound, shown as % of NAD activity in the absence of test compound” value is 30%. With `Cn1cc(-c2cnc3nc(-c4ccc(F)cc4)c(-c4ccc(F)cc4)nc3c2)nn1` [BC19401] the figure was 55%; with `CC#CC(=O)Nc1ccc2nc(-c3ccc(F)cc3)c(-c3ccc(F)cc3)nc2c1` [BC19314], 33%; with `CN1CCN(C(=O)c2ccc3nc(-c4ccc(F)cc4)c(-c4ccc(Cl)cc4)nc3c2)CC1` [BC19317], 42%. With `O=S(=O)(NCC1CC1)c1ccc2nc(-c3ccc(F)cc3)c(-c3ccc(F)cc3)nc2c1` [BC19506] the figure was 66%.

In the case of `CN(C)CCNC(=O)Nc1ccc2nc(-c3ccc(F)cc3)c(-c3ccc(F)cc3)nc2c1` [BC19564], the “C: change in NAD levels in response to test compound, shown as % of NAD activity in the absence of test compound” value is 5%.

As to `CN(C)CCNS(=O)(=O)c1ccc2nc(-c3ccc(F)cc3)c(-c3ccc(F)cc3)nc2c1` [BC19555], the “C: change in NAD levels in response to test compound, shown as % of NAD activity in the absence of test compound” value came out at 1%. With `CN1CCN(C(=O)c2ccc3nc(-c4ccc(F)cc4)c(-c4ccc(F)cc4F)nc3c2)CC1` [BC19318] the figure was 67%; with `Fc1ccc(-c2nc3ccc(-c4nnc[nH]4)cc3nc2C(F)(F)F)cc1` [BC19159], 92%; with `CN1CCN(C(=O)c2ccc3nc(-c4cccc(N(C)C)c4)c(-c4cccc(N(C)C)c4)nc3c2)CC1` [BC19498], 66%. With `CC(C)OC(=O)Nc1ccc2nc(-c3ccc(F)cc3)c(-c3ccc(F)cc3)nc2c1` [BC19195] the figure was 90%. Consider `CN1CCOc2cc(-c3ccc4nc(-c5ccc(F)cc5)c(-c5ccc(F)cc5)nc4c3)ccc21` [BC19244], for which the “C: change in NAD levels in response to test compound, shown as % of NAD activity in the absence of test compound” value was found to be 86%. With `O=S(=O)(NCc1ccccn1)c1ccc2nc(-c3ccc(F)cc3)c(-c3ccc(F)cc3)nc2c1` [BC19559] the figure was 42%. As for `O=C(NCCN1CCOCC1)c1ccc2nc(-c3ccc(OC(F)(F)F)cc3)c(-c3ccc(OC(F)(F)F)cc3)nc2c1` [BC19503], the “C: change in NAD levels in response to test compound, shown as % of NAD activity in the absence of test compound” value was 43%. To `OCCCn1cnnc1-c1ccc2nc(-c3ccc(F)cc3)c(-c3ccc(F)cc3)nc2c1` [BC19665] belongs 58%. To `COCCNS(=O)(=O)c1ccc2nc(-c3ccc(F)cc3)c(-c3ccc(F)cc3)nc2c1` [BC19507] belongs 53%; to `O=C(NCCCO)Nc1ccc2nc(-c3ccc(F)cc3)c(-c3ccc(F)cc3)nc2c1` [BC19575], 78%. For the compound `O=C1CCCN1CCCNS(=O)(=O)c1ccc2nc(-c3ccc(F)cc3)c(-c3ccc(F)cc3)nc2c1` [BC19560], the “C: change in NAD levels in response to test compound, shown as % of NAD activity in the absence of test compound” value is listed as 51%. `O=C(NCCCN1CCOCC1)Nc1ccc2nc(-c3ccc(F)cc3)c(-c3ccc(F)cc3)nc2c1` [BC19576]: the “C: change in NAD levels in response to test compound, shown as % of NAD activity in the absence of test compound” value stood at 61%. To `Cn1cc(-c2ccc3nc(-c4ccc(F)cc4)c(-c4ccc(F)cc4)nc3c2)cn1` [BC19302] belongs 58%; to `CCNC(=O)Nc1ccc2nc(-c3ccc(F)cc3)c(-c3ccc(F)cc3)nc2c1` [BC19563], 90%; to `OCCn1cc(-c2ccc3nc(-c4ccc(F)cc4)c(-c4ccc(F)cc4)nc3c2)nn1` [BC19396], 60%. To `CCc1nnc(-c2ccc3nc(-c4ccc(F)cc4)c(-c4ccc(F)cc4)nc3c2)o1` [BC19246] belongs 58%; to `Cn1cc(-c2ccc3nc(-c4ccc(F)cc4)c(-c4ccc(F)cc4)nc3c2)nn1` [BC19148], 80%; to `Oc1ccc2nc(-c3ccc(F)cc3)c(-c3ccc(F)cc3)nc2n1` [BC19448], 78%. Consider `O=S(=O)(NCCCN1CCOCC1)c1ccc2nc(-c3ccc(F)cc3)c(-c3ccc(F)cc3)nc2c1` [BC19508], for which the “C: change in NAD levels in response to test compound, shown as % of NAD activity in the absence of test compound” value came out at 28%. Consider `O=C(NCCO)Nc1ccc2nc(-c3ccc(F)cc3)c(-c3ccc(F)cc3)nc2c1` [BC19566], for which the “C: change in NAD levels in response to test compound, shown as % of NAD activity in the absence of test compound” value came to 77%. Consider `CNC(=O)c1ccc2nc(-c3ccc(OC(F)(F)F)cc3)c(-c3ccc(OC(F)(F)F)cc3)nc2c1` [BC19447], for which the “C: change in NAD levels in response to test compound, shown as % of NAD activity in the absence of test compound” value is 50%. With `Cc1ccc(S(=O)(=O)c2nc3cc(C(=O)N4CCN(C)CC4)ccc3nc2-c2ccc(F)cc2)cc1F` [BC19307] the figure was 31%; with `CN1CCN(C(=O)c2cnc3nc(-c4ccc(F)cc4)c(-c4ccc(F)cc4)nc3c2)CC1` [BC19408], 95%.
